Measured values from patent US20150238394A1, “Triggerable Compositions For Two-Stage, Controlled Release of Proactive Chemistry Using Aldehydes” (Kimberly-Clark Worldwide, Inc., priority 2014, published 2015).

Assay: Volatility and smell of non-salt acetals, neat and embedded in polymer films brushed on polyethylene film and air-dried
Format: physicochemical
Settings: embedded in PVP/VA, Eudragit E-100 and Eudragit S-100, brushed on polyethylene films, air-dried
Description: 1. Acetal of citronellal with ethanol and acetal of vanillin with ethanol were custom-synthesized. Their structures are shown below. […] The acetals were embedded in PVP/VA, Eudragit E-100, and Eudragit S-100 by simply dissolving the acetals in the solutions of those polymers. The solutions were then brushed on polyethylene films and air-dried. The parent aldehydes were also embedded in the same ratio in those polymers. Strong smells of both parent aldehydes and acetals could be nasally detected after drying. Those non-salt based acetals cannot effectively reduce the volatility of aldehyde-based fragrances and are not good pro-actives for stabilizing those fragrances.

Smell nasally detected after drying, Strong smells:
CCOC(CC(C)CCC=C(C)C)OCC (stereo not shown) [Acetal of citronellal with ethanol]
CCOC(OCC)c1ccc(O)c(OC)c1 [acetal of vanillin with ethanol]
CC(C)=CCCC(C)CC=O (stereo not shown) [citronellal]
COc1cc(C=O)ccc1O [vanillin]
